# Laboratory results taken from ChEMBL document CHEMBL1201862, “PubChem BioAssay data set” (2004).
#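 Following 48 hours of exposure in 96-well plates, responses at five concentrations were used to interpolate endpoints linearly. At the GI50, growth is halved.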 Calls of active or inactive are those of the source. Cut-off read from the data, not from the text of the source: active = GI50 up to about 1.1 µM and inactive = higher.
# What was measured:
# Experiment in all cases: DTP human tumour cell line panel, 48 h
# KM-20L2 = system: KM-20L2
# EKVX = system: EKVX
# IGROV-1 = system: IGROV-1
# RXF 393 = system: RXF 393
# UACC-257 = system: UACC-257
# XF498 = system: XF498
# CAKI-1 = system: CAKI-1
# SF-539 = system: SF-539
# NCI-H226 = system: NCI-H226
# DMS-273 = system: DMS-273
# A549 = system: A549
# DLD-1 = system: DLD-1
# HOP-62 = system: HOP-62
# HL-60 = system: HL-60
# NCI-H23 = system: NCI-H23
# SK-MEL-2 = system: SK-MEL-2
# RXF 631 = system: RXF 631
# OVCAR-8 = system: OVCAR-8
# DMS-114 = system: DMS-114
# SF-295 = system: SF-295
# UO-31 = system: UO-31
# HT-29 = system: HT-29
# M14 = system: M14
# SNB-19 = system: SNB-19
# KM12 = system: KM12
# SK-OV-3 = system: SK-OV-3
# LXFL 529 = system: LXFL 529
# HOP-92 = system: HOP-92
# 786-0 = system: 786-0
# ACHN = system: ACHN
# HCT-15 = system: HCT-15
# OVCAR-4 = system: OVCAR-4
# HCT-116 = system: HCT-116
# Malme-3M = system: Malme-3M
# U-251 = system: U-251
# UACC-62 = system: UACC-62
# MOLT-4 = system: MOLT-4
# K562 = system: K562
# RPMI-8226 = system: RPMI-8226
# M19-MEL = system: M19-MEL
# LOX IMVI = system: LOX IMVI
# HCC 2998 = system: HCC 2998
# COLO 205 = system: COLO 205
# SW-620 = system: SW-620
# CCRF-CEM = system: CCRF-CEM
# SF-268 = system: SF-268
# OVCAR-3 = system: OVCAR-3
# NCI-H460 = system: NCI-H460
# SR = system: SR
# SN12C = system: SN12C
# SNB-75 = system: SNB-75
# NCI-H522 = system: NCI-H522
# OVCAR-5 = system: OVCAR-5
# SNB-78 = system: SNB-78
# MCF7 = system: MCF7
# SK-MEL-5 = system: SK-MEL-5
# MDA-N = system: MDA-N
# BT-549 = system: BT-549
# DU-145 = system: DU-145
# PC-3 = system: PC-3
# T47D = system: T47D
# NCI/ADR-RES = system: NCI/ADR-RES
# HOP-18 = system: HOP-18
# MDA-MB-231 = system: MDA-MB-231
compound,measurement,setting,value
COC(=O)c1c(CC#N)cccc1CC#N,GI50,KM-20L2,> 100 µM (inactive)
same,GI50,EKVX,> 100 µM (inactive)
same,GI50,IGROV-1,> 100 µM (inactive)
same,GI50,RXF 393,> 100 µM (inactive)
same,GI50,UACC-257,> 100 µM (inactive)
same,GI50,XF498,> 100 µM (inactive)
same,GI50,CAKI-1,> 100 µM (inactive)
same,GI50,SF-539,> 100 µM (inactive)
same,GI50,NCI-H226,> 100 µM (inactive)
same,GI50,DMS-273,> 100 µM (inactive)
same,GI50,A549,> 100 µM (inactive)
same,GI50,DLD-1,> 100 µM (inactive)
same,GI50,HOP-62,> 100 µM (inactive)
same,GI50,HL-60,> 100 µM (inactive)
same,GI50,NCI-H23,> 100 µM (inactive)
same,GI50,SK-MEL-2,> 100 µM (inactive)
same,GI50,RXF 631,> 100 µM (inactive)
same,GI50,OVCAR-8,> 100 µM (inactive)
same,GI50,DMS-114,> 100 µM (inactive)
same,GI50,SF-295,> 100 µM (inactive)
same,GI50,UO-31,> 100 µM (inactive)
same,GI50,HT-29,> 100 µM (inactive)
same,GI50,M14,> 100 µM (inactive)
same,GI50,SNB-19,> 100 µM (inactive)
same,GI50,KM12,> 100 µM (inactive)
same,GI50,SK-OV-3,> 100 µM (inactive)
same,GI50,LXFL 529,> 100 µM (inactive)
same,GI50,HOP-92,> 100 µM (inactive)
same,GI50,786-0,> 100 µM (inactive)
same,GI50,ACHN,> 100 µM (inactive)
same,GI50,HCT-15,> 100 µM
same,GI50,OVCAR-4,> 100 µM (inactive)
same,GI50,HCT-116,> 100 µM (inactive)
same,GI50,Malme-3M,> 100 µM (inactive)
same,GI50,U-251,> 100 µM (inactive)
same,GI50,UACC-62,> 100 µM (inactive)
same,GI50,MOLT-4,> 100 µM (inactive)
same,GI50,K562,> 100 µM (inactive)
same,GI50,RPMI-8226,> 100 µM (inactive)
same,GI50,M19-MEL,> 100 µM (inactive)
same,GI50,LOX IMVI,> 100 µM (inactive)
same,GI50,HCC 2998,> 100 µM (inactive)
same,GI50,COLO 205,> 100 µM (inactive)
same,GI50,SW-620,> 100 µM (inactive)
same,GI50,CCRF-CEM,> 100 µM (inactive)
same,GI50,SF-268,> 100 µM (inactive)
same,GI50,OVCAR-3,> 100 µM (inactive)
same,GI50,NCI-H460,> 100 µM (inactive)
same,GI50,SR,> 100 µM (inactive)
same,GI50,SN12C,> 100 µM (inactive)
same,GI50,SNB-75,> 100 µM (inactive)
same,GI50,NCI-H522,> 100 µM (inactive)
same,GI50,OVCAR-5,> 100 µM (inactive)
COc1cccc2c1C(=O)c1c(O)c3c(c(O)c1C2=O)C[C@@](O)(C(=O)CO)C[C@@H]3OC1CC(N)CC(C)O1 (stereo partly specified),GI50,KM-20L2,0.0695 µM (active)
same,GI50,SNB-78,0.128 µM (active)
same,GI50,EKVX,0.0847 µM (active)
same,GI50,MCF7,0.024 µM (active)
same,GI50,SK-MEL-5,0.0371 µM (active)
same,GI50,UACC-257,0.051 µM (active)
same,GI50,DLD-1,0.092 µM (active)
same,GI50,HOP-62,0.0221 µM (active)
same,GI50,MDA-N,0.0955 µM (active)
same,GI50,BT-549,0.0283 µM (active)
same,GI50,RXF 631,0.0301 µM (active)
same,GI50,SF-295,0.0239 µM (active)
same,GI50,HT-29,0.035 µM (active)
same,GI50,M14,0.0803 µM (active)
same,GI50,SK-OV-3,0.0521 µM (active)
same,GI50,LXFL 529,0.0462 µM (active)
same,GI50,HOP-92,0.0416 µM (active)
same,GI50,DU-145,0.0267 µM (active)
same,GI50,786-0,0.0247 µM (active)
same,GI50,PC-3,0.027 µM (active)
same,GI50,OVCAR-4,0.046 µM (active)
same,GI50,T47D,0.0233 µM (active)
same,GI50,Malme-3M,0.0284 µM (active)
same,GI50,UACC-62,0.0254 µM (active)
same,GI50,M19-MEL,0.0314 µM (active)
same,GI50,HCC 2998,0.0706 µM (active)
same,GI50,NCI/ADR-RES,3.67 µM (inactive)
same,GI50,COLO 205,0.042 µM (active)
same,GI50,CCRF-CEM,0.0267 µM (active)
same,GI50,HOP-18,0.0348 µM (active)
same,GI50,SF-268,0.0451 µM (active)
same,GI50,OVCAR-3,0.0547 µM (active)
same,GI50,SR,0.00266 µM (active)
same,GI50,SN12C,0.0299 µM (active)
same,GI50,SNB-75,0.0402 µM (active)
same,GI50,NCI-H522,0.038 µM (active)
same,GI50,OVCAR-5,0.074 µM (active)
same,GI50,MDA-MB-231,0.0612 µM (active)
